The text below walks through data of patent US20250368647A1, “NITROGEN CONTAINING CONDENSED 2,3-DIHYDROQUINAZOLINONE COMPOUNDS AS NAV1.8 INHIBITORS” (GLAXOSMITHKLINE INTELLECTUAL PROPERTY DEVELOPMENT LIMITED, priority 2022, published 2025).

This experiment concerns the target human Nav1.8 (Homo sapiens (Human), UniProt Q9Y5Y9). Briefly: QPatch 48 HTX voltage-clamp electrophysiology, half inactivation state (V1/2) protocol, HEK293-Nav1.8 cells. The class given is cell-based. The following applies: HEK293 cells expressing human Nav1.8, human Navβ1 and human TREK1, P2 current; for IC50: read-out: Nav1.8, pIC50 (converted). Summed up: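 HEK293 cells co-expressing Navβ1 and TREK1 were voltage-clamped from −100 mV: a 20 ms step to 0 mV, 8 s inactivation at −46 mV, 20 ms at −100 mV, then a 20 ms P2 test step to 0 mV, repeated every 15 s. P2 current was normalized to vehicle and full block, corrected for run-down, and Hill-fitted (4–6 concentrations) for IC50.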
A general note: Patch clamp records ionic current or voltage across a cell membrane.

Chain of human Nav1.8 (Q9Y5Y9 whole entry): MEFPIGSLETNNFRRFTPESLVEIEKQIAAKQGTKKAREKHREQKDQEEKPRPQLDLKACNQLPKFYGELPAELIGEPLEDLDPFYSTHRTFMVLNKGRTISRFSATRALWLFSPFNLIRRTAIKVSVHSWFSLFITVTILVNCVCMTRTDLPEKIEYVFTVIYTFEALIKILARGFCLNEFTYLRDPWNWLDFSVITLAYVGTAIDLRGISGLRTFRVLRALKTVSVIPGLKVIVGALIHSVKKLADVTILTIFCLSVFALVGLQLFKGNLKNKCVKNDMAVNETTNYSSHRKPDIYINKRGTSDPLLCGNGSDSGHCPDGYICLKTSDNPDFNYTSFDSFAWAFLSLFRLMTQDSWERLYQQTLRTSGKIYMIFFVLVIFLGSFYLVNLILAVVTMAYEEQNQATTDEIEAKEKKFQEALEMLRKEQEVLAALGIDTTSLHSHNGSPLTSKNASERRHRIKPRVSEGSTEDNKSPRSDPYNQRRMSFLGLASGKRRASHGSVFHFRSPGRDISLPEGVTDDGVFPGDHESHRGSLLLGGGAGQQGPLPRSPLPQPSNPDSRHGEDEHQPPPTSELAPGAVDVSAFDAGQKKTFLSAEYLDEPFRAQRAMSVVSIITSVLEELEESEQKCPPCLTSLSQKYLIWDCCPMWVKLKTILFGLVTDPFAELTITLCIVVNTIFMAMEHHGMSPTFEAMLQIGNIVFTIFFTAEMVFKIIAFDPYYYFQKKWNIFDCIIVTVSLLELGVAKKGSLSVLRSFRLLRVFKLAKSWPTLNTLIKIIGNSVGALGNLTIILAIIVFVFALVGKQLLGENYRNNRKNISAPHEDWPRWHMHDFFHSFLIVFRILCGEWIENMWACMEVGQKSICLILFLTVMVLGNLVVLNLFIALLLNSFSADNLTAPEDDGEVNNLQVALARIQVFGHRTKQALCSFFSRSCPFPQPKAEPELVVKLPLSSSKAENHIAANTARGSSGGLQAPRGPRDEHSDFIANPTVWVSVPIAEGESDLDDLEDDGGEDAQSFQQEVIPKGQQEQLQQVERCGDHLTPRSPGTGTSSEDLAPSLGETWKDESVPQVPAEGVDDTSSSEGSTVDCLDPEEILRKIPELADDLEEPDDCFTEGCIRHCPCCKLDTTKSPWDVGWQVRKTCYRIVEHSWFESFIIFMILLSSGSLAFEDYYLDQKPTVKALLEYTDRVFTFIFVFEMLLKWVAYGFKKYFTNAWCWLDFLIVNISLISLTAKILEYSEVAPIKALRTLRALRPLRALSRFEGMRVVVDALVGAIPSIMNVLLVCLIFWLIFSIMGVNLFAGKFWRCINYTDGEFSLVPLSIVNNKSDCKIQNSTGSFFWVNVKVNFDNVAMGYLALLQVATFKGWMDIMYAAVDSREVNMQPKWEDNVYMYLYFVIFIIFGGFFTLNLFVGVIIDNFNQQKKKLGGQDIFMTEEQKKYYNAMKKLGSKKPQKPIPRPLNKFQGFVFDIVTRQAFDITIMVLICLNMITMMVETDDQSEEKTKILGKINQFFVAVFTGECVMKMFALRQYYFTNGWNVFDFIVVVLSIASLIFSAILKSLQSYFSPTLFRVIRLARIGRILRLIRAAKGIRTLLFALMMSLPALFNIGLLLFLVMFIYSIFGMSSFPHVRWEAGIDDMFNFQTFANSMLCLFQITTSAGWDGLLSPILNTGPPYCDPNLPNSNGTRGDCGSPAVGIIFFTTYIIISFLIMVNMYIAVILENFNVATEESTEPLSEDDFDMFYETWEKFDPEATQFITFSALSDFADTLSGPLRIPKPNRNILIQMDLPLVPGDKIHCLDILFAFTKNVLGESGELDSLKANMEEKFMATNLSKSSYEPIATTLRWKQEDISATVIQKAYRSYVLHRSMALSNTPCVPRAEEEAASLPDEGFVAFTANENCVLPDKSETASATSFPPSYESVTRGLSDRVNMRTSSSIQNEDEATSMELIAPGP
Chain of human Nav1.8 (Q07699 19-218 partner): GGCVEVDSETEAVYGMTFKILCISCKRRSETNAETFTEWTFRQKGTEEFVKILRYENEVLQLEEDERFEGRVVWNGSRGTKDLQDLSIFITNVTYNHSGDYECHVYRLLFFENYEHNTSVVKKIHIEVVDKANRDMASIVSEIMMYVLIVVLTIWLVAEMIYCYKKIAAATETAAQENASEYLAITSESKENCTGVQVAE

Consider `COc1c(F)ccc2c1CNCCc1[nH]c(=O)ccc1N1CN2c2cc(F)c(F)cc2C1=O.O=CO` [Example 70, 2,3,8-Trifluoro-9-methoxy-10,11,12,13-tetrahydro-19H-5,18-methanodibenzo-[c,f]pyrido[3,2-j][1,5,9]triazacyclotridecine-15,19(14H)-dione, Formic acid salt], for which the “Nav1.8, pIC50” value turned out to be 6.1.
Consider `Cl.O=C1c2cc(C(F)(F)F)ccc2N2CN1c1ccc(=O)[nH]c1CCNCc1ccccc12` [Example 78, 2-(Trifluoromethyl)-10,11,12,13-tetrahydro-19H-5,18-methanodibenzo[c,f]pyrido[3,2-j][1,5,9]triazacyclotridecine-15,19(14H)-dione hydrochloride], for which the “Nav1.8, pIC50” value was 6.7.
As for `O=C1c2cc(C(F)(F)F)c(F)cc2N2CN1c1ccc(=O)[nH]c1NCCCc1cc(F)ccc12` [Example 90, 3,8-Difluoro-2-(trifluoromethyl)-10,11,12,13-tetrahydro-19H-5,18-methanodibenzo[f,i]-pyrido[2,3-b][1,4,8]triazacyclotridecine-15,19(14H)-dione], the “Nav1.8, pIC50” value is recorded as 7.7.
Same read-out and setting: in the case of `CNc1cc2c(cc1F)C(=O)N1CN2c2ccc(F)cc2CNCCc2[nH]c(=O)ccc21` [Example 54, 2,8-Difluoro-3-(methylamino)-10,11,12,13-tetrahydro-19H-5,18-methano-dibenzo[c,f]pyrido[3,2-j][1,5,9]triazacyclotridecine-15,19(14H)-dione] it was 6.
As to `Cc1c(F)ccc2c1CNCCc1[nH]c(=O)ccc1N1CN2c2cc(C#N)c(F)cc2C1=O.Cl` [Example 71, 2,8-Difluoro-9-methyl-15,19-dioxo-10,11,12,13,14,15-hexahydro-19H-518-methanodibenzo-[c,f]pyrido[3,2-j][1,5,9]triazacyclotridecine-3-carbonitrile hydrochloride], the “Nav1.8, pIC50” value is on record as 7.6.
With `O=C1c2ccc(C(F)(F)F)cc2N2CN1c1ccc(=O)[nH]c1CCCCc1cc(F)ccc12` [Example 6, 8-fluoro-3-(trifluoromethyl)-10,11,12,13-tetrahydro-19H-5,18-methanodibenzo[b,l]pyridino[3,2-f][1,5]diazacyclotridecine-15,19(14H)-dione], the “Nav1.8, pIC50” value is 7.1.
For `CC1Cc2[nH]c(=O)ccc2N2CN(c3ccc(F)cc3CN1)c1cc(C(F)(F)F)c(F)cc1C2=O` (single isomer, unassigned; isomer 2) [Example 125, 2,8-difluoro-12-methyl-3-(trifluoromethyl)-10,11,12,13-tetrahydro-19H-5,18-methanodibenzo[c,f]pyrido[3,2-j][1,5,9]triazacyclotridecine-15,19(14H)-dione, Isomer 2], the IC50 was 631 nM.
`O=C1c2cc(C(F)(F)F)ccc2N2CN1c1ccc(=O)[nH]c1CNCCCc1cc(F)ccc12` [Example 104, 3^4-Fluoro-2^6-(trifluoromethyl)-1^1,1^2,2^1,2^2,2^3,2^4-hexahydro-7-aza-2(3,1)quinazolina-1(5,6)-pyridina-3(1,2)-benzenacyclooctaphane-1^2,2^4-dione]: the “Nav1.8, pIC50” value stood at 6.9.
With `Cl.O=C1c2cc(F)c(Cl)cc2N2CN1c1ccc(=O)[nH]c1CCNCc1c2ccc(F)c1F` [Example 49, 3-Chloro-2,8,9-trifluoro-10,11,12,13-tetrahydro-19H-5,18-methanodibenzo[c,f]pyrido[3,2-j][1,5,9]triazacyclotridecine-15,19(14H)-dione hydrochloride], the “Nav1.8, pIC50” value came to 8.2.
As for `O=C1c2ccc(C(F)(F)F)nc2N2CN1c1ccc(=O)[nH]c1CCCCCc1cc(F)ccc12` [Example 22, 3^4-Fluoro-2^7-(trifluoromethyl)-1^1,1^2,2^1,2^2,2^3,2^4-hexahydro-2(3,1)-pyrido[2,3-d]pyrimidina-1(5,6)-pyridina-3(1,2)-benzenacyclooctaphane-1^2,2^4-dione], the “Nav1.8, pIC50” value was 7.6.
In the case of `O=C1c2cc(C(F)(F)F)ccc2N2CN1c1ccc(=O)[nH]c1NCCCc1cc(F)c(F)cc12` [Example 39, 7,8-Difluoro-2-(trifluoromethyl)-10,11,12,13-tetrahydro-19H-5,18-methanodibenzo[f,i]dipyrido[2,3,-b][1,4,8]triazacyclotridecine-15,19(14H)-dione], the “Nav1.8, pIC50” value was found to be 7.0.
The same measure, in the same setting: in the case of `Cl.O=C1c2cc(F)c(F)cc2N2CN1c1ccc(=O)[nH]c1CCNCc1c(OC(F)F)cccc12` [Example 75, 9-(Difluoromethoxy)-2,3-difluoro-10,11,12,13-tetrahydro-19H-5,18-methanodibenzo[c,f]pyrido[3,2-j][1,5,9]triazacyclotridecine-15,19(14H)-dione hydrochloride] it was 5.4; in that of `O=C1c2cc(C(F)(F)F)ccc2N2CN1c1ccc(=O)[nH]c1CCNCc1cc(F)ccc12` [Example 41, 8-Fluoro-2-(trifluoromethyl)-10,11,12,13-tetrahydro-19H-5,18-methanodibenzo[c,f]pyrido[3,2-f][1,5,9]triazacyclotridecine-15,19(14H)-dione], 7.3; in that of `O=C1c2cc(F)c(Cl)cc2N2CN1c1ccc(=O)[nH]c1NCCCc1c2ccc(F)c1F` [Example 94, 3-Chloro-2,8,9-trifluoro-10,11,12,13-tetrahydro-19H-5,18-methanodibenzo[f,i]pyrido[2,3-b][1,4,8]triazacyclotridecine-15,19(14H)-dione], 8.1.
`O=C1c2cc(C(F)(F)F)ccc2N2CN1c1cc[n+]([O-])cc1CCCCCc1cc(F)ccc12` [Example 26, 3^4-Fluoro-2^4-oxo-2^6-(trifluoromethyl)-2^1,2^2,2^3,2^4-tetrahydro-2(3,1)-quinazolina-1(4,3)-pyridin-1-iuma-3(1,2)-benzenacyclooctaphan-1-oxide]: the “Nav1.8, pIC50” value is reported as 8.3.
As to `O=C1c2cc(Cl)c(F)cc2N2CN1c1ccc(=O)[nH]c1CCNCc1cc(F)ccc12` [Example 43, 2-Chloro-3,8-difluoro-10,11,12,13-tetrahydro-19H-5,18-methanodibenzo[c,f]pyrido[3,2-f][1,5,9]triazacyclotridecine-15,19(14H)-dione], the “Nav1.8, pIC50” value turned out to be 7.4.
`O=C1c2cc(Cl)cnc2N2CN1c1ccc(=O)[nH]c1CCCCCc1cc(F)ccc12` [Example 20, 2^6-Chloro-3^4-fluoro-1^1,1^2,2^1,2^2,2^3,2^4-hexahydro-2(3,1)-pyrido[2,3-d]pyrimidina-1(5,6)-pyridina-3(1,2)-benzenacyclooctaphane-1^2,2^4-dione]: the “Nav1.8, pIC50” value is listed as 7.2.
On to `Cl.O=C1c2cc(F)c(C(F)(F)F)cc2N2CN1c1ccc(=O)[nH]c1NCCNCc1c2ccc(F)c1F` [Example 135, 2^6,3^3,3^4-Trifluoro-2^7-(trifluoromethyl)-1^1,1^2,2^1,2^2,2^3,2^4-hexahydro-5,8-diaza-2(3,1)-quinazolina-1(5,6)-pyridina-3(1,2)-benzenacyclooctaphane-1^2,2^4-dione hydrochloride], for which the “Nav1.8, pIC50” value is given as 7.4.
Turning to `C[C@@H]1NCCc2[nH]c(=O)ccc2N2CN(c3ccc(C(F)(F)F)cc3C2=O)c2ccc(F)cc21` [Example 116, (10S)-8-fluoro-10-methyl-2-(trifluoromethyl)-10,11,12,13-tetrahydro-19H-5,18-methanodibenzo[c,f]pyrido[3,2-j][1,5,9]triazacyclotridecine-15,19(14H)-dione], the IC50 was 126 nM.
As for `O=C1c2cc(C(F)(F)F)ccc2N2CN1c1ccc(=O)[nH]c1NCCCCc1cc(F)ccc12` [Example 11, 3^4-Fluoro-2^6-(trifluoromethyl)-1^1,1^2,2^1,2^2,2^3,2^4-hexahydro-8-aza-2(3,1)-quinazolina-1(5,6)-pyridina-3(1,2)-benzenacyclooctaphane-1^2,2^4-dione], the “Nav1.8, pIC50” value was determined as 7.3.
As to `Cl.O=C1c2cc(F)c(C(F)(F)F)cc2N2CN1c1ccc(=O)[nH]c1CNCCCc1c2ccc(F)c1F` [Example 106, 2^6,3^3,3^4-Trifluoro-2^7-(trifluoromethyl)-1^1,1^2,2^1,2^2,2^3,2^4-hexahydro-7-aza-2(3,1)-quinazolina-1(5,6)-pyridina-3(1,2)-benzenacyclooctaphane-1^2,2^4-dione hydrochloride], the “Nav1.8, pIC50” value amounted to 8.1.
On to `N#Cc1c(F)ccc2c1CNCCc1[nH]c(=O)ccc1N1CN2c2cc(F)c(F)cc2C1=O` [Example 83, 2,3,8-Trifluoro-15,19-dioxo-10,11,12,13,14,15-hexahydro-19H-5,18-methano-dibenzo[c,f]pyrido[3,2-j][1,5,9]triazacyclotridecine-9-carbonitrile], for which the “Nav1.8, pIC50” value was determined as 6.8.
As to `O=C1c2cc(F)c(F)cc2N2CN1c1ccc(=O)[nH]c1NCCCc1cc(F)ccc12` [Example 91, 2,3,8-Trifluoro-10,11,12,13-tetrahydro-19H-5,18-methanodibenzo[f,i]pyrido[2,3-b]-[1,4,8]triazacyclotridecine-15,19(14H)-dione], the “Nav1.8, pIC50” value was 7.9.
As to `CC1Cc2[nH]c(=O)ccc2N2CN(c3ccc(F)cc3CN1)c1cc(C(F)(F)F)c(F)cc1C2=O` (single isomer, unassigned; isomer 1) [Example 124, 2,8-difluoro-12-methyl-3-(trifluoromethyl)-10,11,12,13-tetrahydro-19H-5,18-methanodibenzo[c,f]pyrido[3,2-j][1,5,9]triazacyclotridecine-15,19(14H)-dione, Isomer 1], the IC50 was 1580 nM.
For `O=C1c2cc(C(F)(F)F)ccc2N2CN1c1ccc(=O)[nH]c1NCCCc1c2ccc(F)c1F` [Example 37, 8,9-Difluoro-2-(trifluoromethyl)-10,11,12,13-tetrahydro-19H-5,18-methanodibenzo[f,i]dipyrido[2,3,-b][1,4,8]triazacyclotridecine-15,19(14H)-dione], the “Nav1.8, pIC50” value was 7.7.
